Source: PMC4814904, “Redox proteins of hydroxylating bacterial dioxygenases establish a regulatory cascade that prevents gratuitous induction of tetralin biodegradation genes” (Scientific Reports, 2016)
Like-named read-outs stand apart in the source and are kept apart here.

What was measured:
[1] = biological target: T1, ThnA4 (ThnA4-His6), NAD(P)H-dependent ferredoxin reductase of tetralin dioxygenase (Sphingopyxis macrogoltabida, UniProt Q8GJE9); assay: UV-visible spectrum after FAD reconstitution; type: binding; conditions: 2 mM FAD added during cell disruption; FAD partly lost during purification
T1 construct: full length, 339 residues, C-terminal His6 (pET23b, plasmid pMPO784), E. coli NCM631 host; plant-type [2Fe-2S]; FAD-reconstituted
T1 sequence (Q8GJE9 entry or part of it): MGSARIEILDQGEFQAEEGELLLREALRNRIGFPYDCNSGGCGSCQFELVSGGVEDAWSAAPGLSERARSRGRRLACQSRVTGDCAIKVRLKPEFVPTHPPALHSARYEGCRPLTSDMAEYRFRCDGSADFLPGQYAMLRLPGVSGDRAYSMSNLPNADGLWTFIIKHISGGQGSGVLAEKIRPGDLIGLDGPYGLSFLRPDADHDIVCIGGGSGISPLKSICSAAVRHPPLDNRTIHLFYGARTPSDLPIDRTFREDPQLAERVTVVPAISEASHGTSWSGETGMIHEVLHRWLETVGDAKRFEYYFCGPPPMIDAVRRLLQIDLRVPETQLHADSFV

[2] = biological target: T1, ThnA4 (ThnA4-His6), NAD(P)H-dependent ferredoxin reductase of tetralin dioxygenase; assay: stopped-flow pre-steady-state reduction of ThnA4ox, fit of kA→B; type: biochemical; conditions: oxidized enzyme, potassium phosphate 50 mM pH 7.4, NaCl 10 mM, glycerine 5%, 15 °C, hydride donor

## Cc1cc2nc3c(=O)[nH]c(=O)nc-3n(C[C@H](O)[C@H](O)[C@H](O)COP(=O)(O)OP(=O)(O)OC[C@H]3O[C@@H](n4cnc5c(N)ncnc54)[C@H](O)[C@@H]3O)c2cc1C [FAD]
[1]
  UV-visible spectrum after FAD reconstitution: reconstituted ThnA4-His6 contains the expected FAD and [2Fe-2S] redox centers

## NC(=O)C1=CN([C@@H]2O[C@H](COP(=O)(O)OP(=O)(O)OC[C@H]3O[C@@H](n4cnc5c(N)ncnc54)[C@H](O)[C@@H]3O)[C@@H](O)[C@H]2O)C=CC1 [NADH]
[2]; upper limit estimated from saturation profile, read-out: Kd^NADH
  Kd: < 0.4 µM

## NC(=O)C1=CN([C@@H]2O[C@H](COP(=O)(O)OP(=O)(O)OC[C@H]3O[C@@H](n4cnc5c(N)ncnc54)[C@H](OP(=O)(O)O)[C@@H]3O)[C@@H](O)[C@H]2O)C=CC1 [NADPH]
[2]; read-out: Kd^NADPH
  Kd: 54 ± 13 µM
